± gives the expanded uncertainty stated by the source.
Assay: xn = mol fraction of the nth substance listed
Conditions: 101 kPa, Liquid

CCCCOCC [butyl ethyl ether] + CCC(C)Cl
viscosity [mPa·s]
Conditions	283.15 K	288.15 K	293.15 K	298.15 K	303.15 K	308.15 K	313.15 K
x2 = 0	0.4796 ± 0.0091	0.4509 ± 0.0087	0.4242 ± 0.0083	0.399 ± 0.0079	0.3756 ± 0.0075	0.356 ± 0.0072	0.3416 ± 0.007
x2 = 0.0525	0.4785 ± 0.0091	0.4498 ± 0.0087	0.4233 ± 0.0083	0.3983 ± 0.0079	0.3749 ± 0.0075	0.3552 ± 0.0072	0.3404 ± 0.007
x2 = 0.0974	0.4776 ± 0.0091	0.4489 ± 0.0086	0.4223 ± 0.0082	0.3974 ± 0.0079	0.374 ± 0.0075	0.3541 ± 0.0072	0.3392 ± 0.007
x2 = 0.2001	0.475 ± 0.009	0.4462 ± 0.0086	0.4203 ± 0.0082	0.3963 ± 0.0078	0.3732 ± 0.0075	0.3533 ± 0.0072	0.3379 ± 0.007
x2 = 0.3027	0.4724 ± 0.009	0.4436 ± 0.0086	0.4183 ± 0.0082	0.395 ± 0.0078	0.3724 ± 0.0075	0.3529 ± 0.0072	0.3372 ± 0.0069
x2 = 0.4	0.4697 ± 0.0089	0.4409 ± 0.0085	0.4165 ± 0.0081	0.394 ± 0.0078	0.3718 ± 0.0075	0.3523 ± 0.0072	0.3364 ± 0.0069
x2 = 0.5248	0.4665 ± 0.0089	0.4384 ± 0.0085	0.4148 ± 0.0081	0.3933 ± 0.0078	0.3716 ± 0.0075	0.3523 ± 0.0072	0.3361 ± 0.0069
x2 = 0.6016	0.4647 ± 0.0089	0.4368 ± 0.0085	0.4139 ± 0.0081	0.393 ± 0.0078	0.3716 ± 0.0075	0.3523 ± 0.0072	0.336 ± 0.0069
x2 = 0.7006	0.463 ± 0.0088	0.4353 ± 0.0084	0.413 ± 0.0081	0.393 ± 0.0078	0.3721 ± 0.0075	0.353 ± 0.0072	0.3363 ± 0.0069
x2 = 0.7993	0.462 ± 0.0088	0.4346 ± 0.0084	0.4132 ± 0.0081	0.3939 ± 0.0078	0.3735 ± 0.0075	0.3545 ± 0.0072	0.3376 ± 0.007
x2 = 0.8997	0.4619 ± 0.0088	0.4349 ± 0.0084	0.4143 ± 0.0081	0.3959 ± 0.0078	0.3759 ± 0.0075	0.3569 ± 0.0072	0.3396 ± 0.007
x2 = 0.9502	0.4623 ± 0.0088	0.4356 ± 0.0084	0.4152 ± 0.0081	0.3972 ± 0.0078	0.3775 ± 0.0076	0.3587 ± 0.0073	0.3414 ± 0.007

CCCCOCC [butyl ethyl ether] + CCCCCl
viscosity [mPa·s]
Conditions	283.15 K	288.15 K	293.15 K	298.15 K	303.15 K	308.15 K	313.15 K
x2 = 0	0.4796 ± 0.0091	0.4509 ± 0.0087	0.4242 ± 0.0083	0.399 ± 0.0079	0.3756 ± 0.0075	0.356 ± 0.0072	0.3416 ± 0.007
x2 = 0.0515	0.4815 ± 0.0091	0.4523 ± 0.0087	0.4254 ± 0.0083	0.4002 ± 0.0079	0.3771 ± 0.0076	0.3576 ± 0.0073	0.3426 ± 0.007
x2 = 0.1016	0.4832 ± 0.0092	0.4536 ± 0.0087	0.4265 ± 0.0083	0.4014 ± 0.0079	0.3785 ± 0.0076	0.359 ± 0.0073	0.3435 ± 0.007
x2 = 0.2008	0.4862 ± 0.0092	0.4561 ± 0.0088	0.4286 ± 0.0083	0.4036 ± 0.008	0.3812 ± 0.0076	0.3618 ± 0.0073	0.3452 ± 0.0071
x2 = 0.3003	0.489 ± 0.0092	0.4583 ± 0.0088	0.4307 ± 0.0084	0.4058 ± 0.008	0.3839 ± 0.0077	0.365 ± 0.0074	0.3473 ± 0.0071
x2 = 0.4002	0.4914 ± 0.0093	0.4604 ± 0.0088	0.4326 ± 0.0084	0.408 ± 0.008	0.3868 ± 0.0077	0.368 ± 0.0074	0.3493 ± 0.0071
x2 = 0.5014	0.4934 ± 0.0093	0.4623 ± 0.0088	0.4345 ± 0.0084	0.4102 ± 0.008	0.3895 ± 0.0077	0.3712 ± 0.0075	0.3514 ± 0.0072
x2 = 0.6023	0.4951 ± 0.0093	0.4641 ± 0.0089	0.4364 ± 0.0084	0.4123 ± 0.0081	0.3925 ± 0.0078	0.3744 ± 0.0075	0.3537 ± 0.0072
x2 = 0.7003	0.4965 ± 0.0094	0.4657 ± 0.0089	0.4381 ± 0.0085	0.4145 ± 0.0081	0.3954 ± 0.0078	0.3777 ± 0.0076	0.3559 ± 0.0072
x2 = 0.8004	0.4977 ± 0.0094	0.4672 ± 0.0089	0.4398 ± 0.0085	0.4167 ± 0.0081	0.3985 ± 0.0079	0.381 ± 0.0076	0.3585 ± 0.0073
x2 = 0.9006	0.4986 ± 0.0094	0.4687 ± 0.0089	0.4416 ± 0.0085	0.4191 ± 0.0082	0.4016 ± 0.0079	0.3846 ± 0.0077	0.3612 ± 0.0073
x2 = 0.9502	0.4989 ± 0.0094	0.4694 ± 0.0089	0.4424 ± 0.0085	0.4201 ± 0.0082	0.4033 ± 0.0079	0.3866 ± 0.0077	0.3627 ± 0.0074

CCCCOCC [butyl ethyl ether] + CC(C)CCl
viscosity [mPa·s]
Conditions	283.15 K	288.15 K	293.15 K	298.15 K	303.15 K	308.15 K	313.15 K
x2 = 0	0.4796 ± 0.0091	0.4509 ± 0.0087	0.4242 ± 0.0083	0.399 ± 0.0079	0.3756 ± 0.0075	0.356 ± 0.0072	0.3416 ± 0.007
x2 = 0.0493	0.4797 ± 0.0091	0.4512 ± 0.0087	0.4246 ± 0.0083	0.3993 ± 0.0079	0.3762 ± 0.0075	0.3569 ± 0.0072	0.3423 ± 0.007
x2 = 0.1004	0.4799 ± 0.0091	0.4514 ± 0.0087	0.4248 ± 0.0083	0.3998 ± 0.0079	0.3771 ± 0.0076	0.3578 ± 0.0073	0.3432 ± 0.007
x2 = 0.2001	0.4812 ± 0.0091	0.4526 ± 0.0087	0.4259 ± 0.0083	0.4012 ± 0.0079	0.3793 ± 0.0076	0.3603 ± 0.0073	0.3455 ± 0.0071
x2 = 0.3012	0.4836 ± 0.0092	0.4548 ± 0.0087	0.4279 ± 0.0083	0.4035 ± 0.008	0.3822 ± 0.0076	0.3634 ± 0.0073	0.3481 ± 0.0071
x2 = 0.4021	0.4866 ± 0.0092	0.4574 ± 0.0088	0.4305 ± 0.0084	0.4063 ± 0.008	0.3855 ± 0.0077	0.3667 ± 0.0074	0.3511 ± 0.0072
x2 = 0.5025	0.4903 ± 0.0093	0.4609 ± 0.0088	0.4337 ± 0.0084	0.4097 ± 0.008	0.3893 ± 0.0077	0.3704 ± 0.0074	0.3543 ± 0.0072
x2 = 0.6007	0.4946 ± 0.0093	0.4649 ± 0.0089	0.4374 ± 0.0085	0.4133 ± 0.0081	0.3933 ± 0.0078	0.3745 ± 0.0075	0.3576 ± 0.0073
x2 = 0.6993	0.4994 ± 0.0094	0.4692 ± 0.0089	0.4412 ± 0.0085	0.4171 ± 0.0081	0.3975 ± 0.0078	0.3786 ± 0.0076	0.3612 ± 0.0073
x2 = 0.7994	0.5044 ± 0.0095	0.4736 ± 0.009	0.4453 ± 0.0086	0.4211 ± 0.0082	0.4021 ± 0.0079	0.3832 ± 0.0076	0.3649 ± 0.0074
x2 = 0.8993	0.5099 ± 0.0096	0.4783 ± 0.0091	0.4496 ± 0.0086	0.4253 ± 0.0083	0.4065 ± 0.008	0.3875 ± 0.0077	0.3687 ± 0.0074
x2 = 0.9491	0.5126 ± 0.0096	0.4808 ± 0.0091	0.4518 ± 0.0087	0.4274 ± 0.0083	0.4089 ± 0.008	0.3898 ± 0.0077	0.3706 ± 0.0075

CCC(C)Cl (stereo unspecified) [2-chlorobutane] + COC(C)(C)C
viscosity [mPa·s]
Conditions	283.15 K	288.15 K	293.15 K	298.15 K	303.15 K	308.15 K	313.15 K
x1 = 0.0434	0.3916 ± 0.0078	0.3664 ± 0.0074	0.3507 ± 0.0071	0.3353 ± 0.0069	0.3177 ± 0.0067	0.3019 ± 0.0064	0.287 ± 0.0062
x1 = 0.0928	0.3949 ± 0.0078	0.3694 ± 0.0074	0.3536 ± 0.0072	0.3383 ± 0.007	0.3207 ± 0.0067	0.3048 ± 0.0065	0.2897 ± 0.0062
x1 = 0.1824	0.4008 ± 0.0079	0.3752 ± 0.0075	0.3591 ± 0.0073	0.3436 ± 0.007	0.3261 ± 0.0068	0.3099 ± 0.0065	0.2948 ± 0.0063
x1 = 0.2774	0.4072 ± 0.008	0.3816 ± 0.0076	0.365 ± 0.0074	0.3495 ± 0.0071	0.3319 ± 0.0069	0.3155 ± 0.0066	0.3002 ± 0.0064
x1 = 0.3786	0.4141 ± 0.0081	0.3883 ± 0.0077	0.3715 ± 0.0075	0.3558 ± 0.0072	0.338 ± 0.007	0.3215 ± 0.0067	0.306 ± 0.0065
x1 = 0.4751	0.4208 ± 0.0082	0.3951 ± 0.0078	0.3779 ± 0.0075	0.3619 ± 0.0073	0.3441 ± 0.0071	0.3273 ± 0.0068	0.3117 ± 0.0066
x1 = 0.584	0.4287 ± 0.0083	0.4029 ± 0.0079	0.3853 ± 0.0077	0.3691 ± 0.0074	0.351 ± 0.0072	0.334 ± 0.0069	0.3182 ± 0.0067
x1 = 0.6819	0.436 ± 0.0084	0.4101 ± 0.008	0.3921 ± 0.0078	0.3757 ± 0.0075	0.3575 ± 0.0073	0.3401 ± 0.007	0.3241 ± 0.0068
x1 = 0.8032	0.4456 ± 0.0086	0.4195 ± 0.0082	0.4009 ± 0.0079	0.3843 ± 0.0076	0.3657 ± 0.0074	0.3481 ± 0.0071	0.3317 ± 0.0069
x1 = 0.9015	0.4536 ± 0.0087	0.4274 ± 0.0083	0.4084 ± 0.008	0.3915 ± 0.0078	0.3727 ± 0.0075	0.3547 ± 0.0072	0.3379 ± 0.007
x1 = 0.9512	0.458 ± 0.0088	0.4318 ± 0.0084	0.4125 ± 0.0081	0.3954 ± 0.0078	0.3764 ± 0.0075	0.3581 ± 0.0073	0.3411 ± 0.007
x1 = 1	0.4631 ± 0.0088	0.4365 ± 0.0084	0.4167 ± 0.0081	0.3993 ± 0.0079	0.38 ± 0.0076	0.3615 ± 0.0073	0.3443 ± 0.0071
